Assay results from PubChem BioAssay (NCI).
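1) Cells in 96-well plates. 2) Compound, 48 h, 5 concentrations. 3) Linear interpolation between surrounding doses. 4) Unreached endpoint = highest concentration. TGI marks complete inhibition of growth.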

Columns and labels:
Test in all cases: NCI-60 cell line screen, 48 h
LOX IMVI melanoma = system: LOX IMVI melanoma
IGROV1 ovarian = system: IGROV1 ovarian
MOLT-4 leukemia = system: MOLT-4 leukemia
UACC-257 melanoma = system: UACC-257 melanoma
COLO 205 colon = system: COLO 205 colon
SK-MEL-2 melanoma = system: SK-MEL-2 melanoma
MDA-MB-231 breast = system: MDA-MB-231 breast
SNB-75 CNS = system: SNB-75 CNS
HOP-92 NSCLC = system: HOP-92 NSCLC
OVCAR-5 ovarian = system: OVCAR-5 ovarian
786-0 renal = system: 786-0 renal
UACC-62 melanoma = system: UACC-62 melanoma
HS 578T breast = system: HS 578T breast
BT-549 breast = system: BT-549 breast
SK-MEL-5 melanoma = system: SK-MEL-5 melanoma
A498 renal = system: A498 renal
ACHN renal = system: ACHN renal
NCI-H522 lung = system: NCI-H522 lung
RPMI-8226 leukemia = system: RPMI-8226 leukemia
TK-10 renal = system: TK-10 renal
NCI-H226 lung = system: NCI-H226 lung
NCI/ADR-RES ovarian = system: NCI/ADR-RES ovarian
UO-31 renal = system: UO-31 renal
SN12C renal = system: SN12C renal
SK-OV-3 ovarian = system: SK-OV-3 ovarian
SNB-19 CNS = system: SNB-19 CNS
OVCAR-8 ovarian = system: OVCAR-8 ovarian
OVCAR-3 ovarian = system: OVCAR-3 ovarian
PC-3 prostate = system: PC-3 prostate
CCRF-CEM leukemia = system: CCRF-CEM leukemia
SK-MEL-28 melanoma = system: SK-MEL-28 melanoma
M14 melanoma = system: M14 melanoma
HCT-116 colon = system: HCT-116 colon
EKVX NSCLC = system: EKVX NSCLC
U251 CNS = system: U251 CNS
MDA-MB-435 = system: MDA-MB-435
K-562 leukemia = system: K-562 leukemia
HCT-15 colon = system: HCT-15 colon
RXF 393 renal = system: RXF 393 renal
HOP-62 NSCLC = system: HOP-62 NSCLC
SF-295 CNS = system: SF-295 CNS
SW-620 colon = system: SW-620 colon
CAKI-1 renal = system: CAKI-1 renal
NCI-H23 lung = system: NCI-H23 lung
KM12 colon = system: KM12 colon
SF-268 CNS = system: SF-268 CNS
MALME-3M melanoma = system: MALME-3M melanoma
A549 NSCLC = system: A549 NSCLC
MDA-N = system: MDA-N
OVCAR-4 ovarian = system: OVCAR-4 ovarian
DU-145 prostate = system: DU-145 prostate
HT29 colon = system: HT29 colon
T-47D breast = system: T-47D breast
SR leukemia = system: SR leukemia
NCI-H460 lung = system: NCI-H460 lung
SF-539 CNS = system: SF-539 CNS
MCF7 breast = system: MCF7 breast
HL-60(TB) leukemia = system: HL-60(TB) leukemia

Compound: Cc1ccc(NC(=O)c2cc3ccccc3c(N=Nc3cc(S(=O)(=O)O)ccc3O)c2O)c(C)c1
- TGI (LOX IMVI melanoma): > 100 µM
- TGI (IGROV1 ovarian): > 100 µM
- TGI (MOLT-4 leukemia): > 100 µM
- TGI (UACC-257 melanoma): > 100 µM
- TGI (COLO 205 colon): > 100 µM
- TGI (SK-MEL-2 melanoma): 78.5 µM
- TGI (MDA-MB-231 breast): > 100 µM
- TGI (SNB-75 CNS): > 100 µM
- TGI (HOP-92 NSCLC): > 100 µM
- TGI (OVCAR-5 ovarian): 89.2 µM
- TGI (786-0 renal): > 100 µM
- TGI (UACC-62 melanoma): 83.8 µM
- TGI (HS 578T breast): > 100 µM
- TGI (BT-549 breast): > 100 µM
- TGI (SK-MEL-5 melanoma): > 100 µM
- TGI (A498 renal): > 100 µM
- TGI (ACHN renal): 23 µM
- TGI (NCI-H522 lung): > 100 µM
- TGI (RPMI-8226 leukemia): > 100 µM
- TGI (TK-10 renal): > 100 µM
- TGI (NCI-H226 lung): > 100 µM
- TGI (NCI/ADR-RES ovarian): > 100 µM
- TGI (UO-31 renal): 34.1 µM
- TGI (SN12C renal): > 100 µM
- TGI (SK-OV-3 ovarian): > 100 µM
- TGI (SNB-19 CNS): 71.3 µM
- TGI (OVCAR-8 ovarian): > 100 µM
- TGI (OVCAR-3 ovarian): > 100 µM
- TGI (PC-3 prostate): > 100 µM
- TGI (CCRF-CEM leukemia): 19.6 µM
- TGI (SK-MEL-28 melanoma): > 100 µM
- TGI (M14 melanoma): 37.4 µM
- TGI (HCT-116 colon): > 100 µM
- TGI (EKVX NSCLC): > 100 µM
- TGI (U251 CNS): > 100 µM
- TGI (MDA-MB-435): > 100 µM
- TGI (K-562 leukemia): > 100 µM
- TGI (HCT-15 colon): > 100 µM
- TGI (RXF 393 renal): 63.6 µM
- TGI (HOP-62 NSCLC): > 100 µM
- TGI (SF-295 CNS): 88.9 µM
- TGI (SW-620 colon): > 100 µM
- TGI (CAKI-1 renal): > 100 µM
- TGI (NCI-H23 lung): 56.6 µM
- TGI (KM12 colon): 53.9 µM
- TGI (SF-268 CNS): > 100 µM
- TGI (MALME-3M melanoma): 63.8 µM
- TGI (A549 NSCLC): 80.9 µM
- TGI (MDA-N): > 100 µM
- TGI (OVCAR-4 ovarian): > 100 µM
- TGI (DU-145 prostate): > 100 µM
- TGI (HT29 colon): 58.3 µM
- TGI (T-47D breast): > 100 µM

Compound: CC(N)(/C=C/c1ccccc1)C(=O)O (stereo unspecified)
- TGI (LOX IMVI melanoma): > 100 µM
- TGI (IGROV1 ovarian): > 100 µM
- TGI (MOLT-4 leukemia): > 100 µM
- TGI (UACC-257 melanoma): > 100 µM
- TGI (COLO 205 colon): > 100 µM
- TGI (SK-MEL-2 melanoma): > 100 µM
- TGI (MDA-MB-231 breast): > 100 µM
- TGI (HOP-92 NSCLC): > 100 µM
- TGI (OVCAR-5 ovarian): > 100 µM
- TGI (786-0 renal): > 100 µM
- TGI (UACC-62 melanoma): > 100 µM
- TGI (HS 578T breast): > 100 µM
- TGI (BT-549 breast): > 100 µM
- TGI (SK-MEL-5 melanoma): > 100 µM
- TGI (A498 renal): > 100 µM
- TGI (SR leukemia): > 100 µM
- TGI (ACHN renal): > 100 µM
- TGI (NCI-H522 lung): > 100 µM
- TGI (RPMI-8226 leukemia): > 100 µM
- TGI (TK-10 renal): > 100 µM
- TGI (NCI-H226 lung): > 100 µM
- TGI (NCI/ADR-RES ovarian): > 100 µM
- TGI (UO-31 renal): > 100 µM
- TGI (SN12C renal): > 100 µM
- TGI (SK-OV-3 ovarian): > 100 µM
- TGI (SNB-19 CNS): > 100 µM
- TGI (NCI-H460 lung): > 100 µM
- TGI (OVCAR-8 ovarian): > 100 µM
- TGI (OVCAR-3 ovarian): > 100 µM
- TGI (PC-3 prostate): > 100 µM
- TGI (SF-539 CNS): > 100 µM
- TGI (SK-MEL-28 melanoma): > 100 µM
- TGI (M14 melanoma): > 100 µM
- TGI (HCT-116 colon): > 100 µM
- TGI (EKVX NSCLC): > 100 µM
- TGI (U251 CNS): > 100 µM
- TGI (MDA-MB-435): > 100 µM
- TGI (K-562 leukemia): > 100 µM
- TGI (HCT-15 colon): > 100 µM
- TGI (HOP-62 NSCLC): > 100 µM
- TGI (SF-295 CNS): > 100 µM
- TGI (SW-620 colon): > 100 µM
- TGI (CAKI-1 renal): > 100 µM
- TGI (NCI-H23 lung): > 100 µM
- TGI (KM12 colon): > 100 µM
- TGI (SF-268 CNS): > 100 µM
- TGI (MALME-3M melanoma): > 100 µM
- TGI (MCF7 breast): > 100 µM
- TGI (A549 NSCLC): > 100 µM
- TGI (MDA-N): > 100 µM
- TGI (OVCAR-4 ovarian): > 100 µM
- TGI (HT29 colon): > 100 µM
- TGI (HL-60(TB) leukemia): > 100 µM
